Data as given in patent publication US20230085307A1, “PYRIDAZINONE COMPOUND AND HERBICIDE” (NISSAN CHEMICAL CORPORATION, priority 2019, published 2023).

Tests used:
[1] = system: southern crabgrass; test: Test Example 5: herbicidal effect by foliage application, plastic box (Table 20, symbol F); type: in vivo, southern crabgrass (Digitaria ciliaris); conditions: foliage application, 320 g/ha, 3 weeks after application
Procedure, shortened: (§1)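 Foliar spray test: emulsion formulation diluted in water to a set application rate, sprayed onto 14-day-old plants raised in diluvial soil at 25° C to 30° C under glass. Both herbicidal effect and crop effect rated visually three weeks later.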

[2] = system: persian speedwell; test: Test Example 4: herbicidal effect by soil treatment (Table 19, symbol R); type: in vivo, Persian speedwell (Veronica persica)
Procedure, shortened: (§2)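 Herbicidal effect was rated 3 weeks after treatment, using the scoring criteria of an earlier test. The compound, formulated as an emulsion and diluted in water to a set herbicide amount, had been sprayed uniformly on soil over freshly sown seeds. Growth took place in a greenhouse at 25° C. to 30° C.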

[3] = system: Japanese bulrush; test: Test Example 1: herbicidal activity, application before weed generation under submerged conditions (Table 16, symbol B); type: in vivo, Japanese bulrush (Schoenoplectus juncoides); conditions: 320 g/ha applied herbicide
Procedure, shortened: (§3)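 Alluvial soil was flooded to 4 cm depth, weed seeds were sown mixed and 2.5-leaf rice seedlings were transplanted. On sowing day, the compound's emulsion, diluted in water to a set dose, was applied to the water surface. Plants grew at 25–30 °C and were scored 0–5 after three weeks.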

[4] = system: velvetleaf; test: Test Example 5: herbicidal effect by foliage application, plastic box (Table 20, symbol M); type: in vivo, velvetleaf (Abutilon theophrasti); conditions: foliage application, 320 g/ha, 3 weeks after application
Procedure, shortened: as §1

[5] = system: barnyard grass; test: Test Example 4: herbicidal effect by soil treatment (Table 19, symbol H); type: in vivo, barnyard grass (Echinochloa crus-galli)
Procedure, shortened: as §2

[6] = system: velvetleaf; test: Test Example 4: herbicidal effect by soil treatment (Table 19, symbol M); type: in vivo, velvetleaf (Abutilon theophrasti)
Procedure, shortened: as §2

[7] = system: wild oat; test: Test Example 4: herbicidal effect by soil treatment (Table 19, symbol I); type: in vivo, wild oat (Avena fatua)
Procedure, shortened: as §2

[8] = system: rice flat sedge; test: Test Example 3: herbicidal effect by foliage application, Wagner pot (Table 18, symbol E); type: in vivo, rice flat sedge (Cyperus iria)
Procedure, shortened: (§4)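 Plants were sown in alluvial soil held under 0.1–0.5 cm standing water and grown 14 days in a greenhouse at 25–30 °C. An emulsifiable formulation, water-diluted to the set dose, was then sprayed onto the foliage, and effects were scored three weeks later using previously defined criteria.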

[9] = system: green foxtail; test: Test Example 5: herbicidal effect by foliage application, plastic box (Table 20, symbol G); type: in vivo, green foxtail (Setaria viridis); conditions: foliage application, 320 g/ha, 3 weeks after application
Procedure, shortened: as §1

[10] = system: lambsquarters; test: Test Example 4: herbicidal effect by soil treatment (Table 19, symbol O); type: in vivo, lambsquarters (Chenopodium album)
Procedure, shortened: as §2

[11] = system: Italian ryegrass; test: Test Example 4: herbicidal effect by soil treatment (Table 19, symbol K); type: in vivo, Italian ryegrass (Lolium multiflorum)
Procedure, shortened: as §2

[12] = system: blackgrass; test: Test Example 4: herbicidal effect by soil treatment (Table 19, symbol J); type: in vivo, blackgrass (Alopecurus myosuroides)
Procedure, shortened: as §2

[13] = system: windgrass; test: Test Example 5: herbicidal effect by foliage application, plastic box (Table 20, symbol L); type: in vivo, windgrass (Apera spica-venti); conditions: foliage application, 320 g/ha, 3 weeks after application
Procedure, shortened: as §1

[14] = system: Italian ryegrass; test: Test Example 5: herbicidal effect by foliage application, plastic box (Table 20, symbol K); type: in vivo, Italian ryegrass (Lolium multiflorum); conditions: foliage application, 320 g/ha, 3 weeks after application
Procedure, shortened: as §1

[15] = system: persian speedwell; test: Test Example 5: herbicidal effect by foliage application, plastic box (Table 20, symbol R); type: in vivo, Persian speedwell (Veronica persica); conditions: foliage application, 320 g/ha, 3 weeks after application
Procedure, shortened: as §1

[16] = system: late watergrass; test: Test Example 1: herbicidal activity, application before weed generation under submerged conditions (Table 16, symbol A); type: in vivo, late watergrass (Echinochloa oryzicola); conditions: 320 g/ha applied herbicide
Procedure, shortened: as §3

[17] = system: Chinese sprangletop; test: Test Example 3: herbicidal effect by foliage application, Wagner pot (Table 18, symbol D); type: in vivo, chinese sprangletop (Leptochloa chinensis)
Procedure, shortened: as §4

[18] = system: southern crabgrass; test: Test Example 4: herbicidal effect by soil treatment (Table 19, symbol F); type: in vivo, southern crabgrass (Digitaria ciliaris)
Procedure, shortened: as §2

[19] = system: lambsquarters; test: Test Example 5: herbicidal effect by foliage application, plastic box (Table 20, symbol O); type: in vivo, lambsquarters (Chenopodium album); conditions: foliage application, 320 g/ha, 3 weeks after application
Procedure, shortened: as §1

[20] = system: redroot pigweed; test: Test Example 4: herbicidal effect by soil treatment (Table 19, symbol N); type: in vivo, redroot pigweed (Amaranthus retroflexus)
Procedure, shortened: as §2

[21] = system: green foxtail; test: Test Example 4: herbicidal effect by soil treatment (Table 19, symbol G); type: in vivo, green foxtail (Setaria viridis)
Procedure, shortened: as §2

[22] = system: blackgrass; test: Test Example 5: herbicidal effect by foliage application, plastic box (Table 20, symbol J); type: in vivo, blackgrass (Alopecurus myosuroides); conditions: foliage application, 320 g/ha, 3 weeks after application
Procedure, shortened: as §1

[23] = system: barnyard grass; test: Test Example 3: herbicidal effect by foliage application, Wagner pot (Table 18, symbol H); type: in vivo, barnyard grass (Echinochloa crus-galli)
Procedure, shortened: as §4

[24] = system: barnyard grass; test: Test Example 5: herbicidal effect by foliage application, plastic box (Table 20, symbol H); type: in vivo, barnyard grass (Echinochloa crus-galli); conditions: foliage application, 320 g/ha, 3 weeks after application
Procedure, shortened: as §1

[25] = system: windgrass; test: Test Example 4: herbicidal effect by soil treatment (Table 19, symbol L); type: in vivo, windgrass (Apera spica-venti)
Procedure, shortened: as §2

[26] = system: oval-leafed pondweed; test: Test Example 1: herbicidal activity, application before weed generation under submerged conditions (Table 16, symbol C); type: in vivo, oval-leafed pondweed (Monochoria vaginalis); conditions: 320 g/ha applied herbicide
Procedure, shortened: as §3

[27] = system: wild oat; test: Test Example 5: herbicidal effect by foliage application, plastic box (Table 20, symbol I); type: in vivo, wild oat (Avena fatua); conditions: foliage application, 320 g/ha, 3 weeks after application
Procedure, shortened: as §1

[28] = system: chickweed; test: Test Example 4: herbicidal effect by soil treatment (Table 19, symbol P); type: in vivo, common chickweed (Stellaria media); conditions: amount of applied herbicide 320 g/ha
Procedure, shortened: as §2

[29] = amount of applied herbicide 320 g/ha

C=CCSCc1ccc(-c2sc3ccccc3c2-c2c(O)c(C)nn(C)c2=O)cc1 [1-245]
effect on southern crabgrass (F) [1]: 3 (Herbicidal rate of 40% or more and less than 70%) | R: persian speedwell, herbicidal effect rating ([2]; AAH 320 g/ha): 4 (Herbicidal rate of 70% or more and less than 90%) | Herbicidal effect on B: Japanese bulrush (grade 0-5) [3]: 3 (Herbicidal rate of 40% or more and less than 70%) | effect on velvetleaf (M) [4]: 5 (Herbicidal rate of 90% or more (almost completely withered)) | H: barnyard grass, herbicidal effect rating ([5]; AAH 320 g/ha): 0 (Herbicidal rate of 5% or less (almost no effect)) | M: velvetleaf, herbicidal effect rating ([6]; AAH 320 g/ha): 0 (Herbicidal rate of 5% or less (almost no effect)) | I: wild oat, herbicidal effect rating ([7]; AAH 320 g/ha): 0 (Herbicidal rate of 5% or less (almost no effect)) | herbicidal effect on E (rice flat sedge), rating 0-5 ([8]; 320 g/ha): 3 (Herbicidal rate of 40% or more and less than 70%) | effect on green foxtail (G) [9]: 4 (Herbicidal rate of 70% or more and less than 90%) | O: lambsquarters, herbicidal effect rating ([10]; AAH 320 g/ha): 3 (Herbicidal rate of 40% or more and less than 70%) | K: Italian ryegrass, herbicidal effect rating ([11]; AAH 320 g/ha): 2 (Herbicidal rate of 20% or more and less than 40%) | J: blackgrass, herbicidal effect rating ([12]; AAH 320 g/ha): 0 (Herbicidal rate of 5% or less (almost no effect)) | effect on windgrass (L) [13]: 4 (Herbicidal rate of 70% or more and less than 90%) | effect on Italian ryegrass (K) [14]: 4 (Herbicidal rate of 70% or more and less than 90%) | effect on persian speedwell (R) [15]: 5 (Herbicidal rate of 90% or more (almost completely withered)) | Herbicidal effect on A: late watergrass (grade 0-5) [16]: 3 (Herbicidal rate of 40% or more and less than 70%) | herbicidal effect on D (Chinese sprangletop), rating 0-5 ([17]; 320 g/ha): 3 (Herbicidal rate of 40% or more and less than 70%) | F: southern crabgrass, herbicidal effect rating ([18]; AAH 320 g/ha): 0 (Herbicidal rate of 5% or less (almost no effect)) | effect on lambsquarters (O) [19]: 5 (Herbicidal rate of 90% or more (almost completely withered)) | N: redroot pigweed, herbicidal effect rating ([20]; AAH 320 g/ha): 3 (Herbicidal rate of 40% or more and less than 70%) | G: green foxtail, herbicidal effect rating ([21]; AAH 320 g/ha): 0 (Herbicidal rate of 5% or less (almost no effect)) | effect on blackgrass (J) [22]: 3 (Herbicidal rate of 40% or more and less than 70%) | herbicidal effect on H (barnyard grass), rating 0-5 ([23]; 320 g/ha): 5 (Herbicidal rate of 90% or more (almost completely withered)) | effect on barnyard grass (H) [24]: 5 (Herbicidal rate of 90% or more (almost completely withered)) | L: windgrass, herbicidal effect rating ([25]; AAH 320 g/ha): 0 (Herbicidal rate of 5% or less (almost no effect)) | Herbicidal effect on C: oval-leafed pondweed (grade 0-5) [26]: 0 (Herbicidal rate of 5% or less (almost no effect)) | effect on wild oat (I) [27]: 1 (Herbicidal rate of 5% or more and less than 20%)

COc1ccc(-c2sc3ccc(F)cc3c2-c2c(O)c(C)nn(C)c2=O)cc1Cl [2-370]
herbicidal effect, R: persian speedwell [2, 29]: 4 (Herbicidal rate of 70% or more and less than 90%) | Herbicidal effect on B: Japanese bulrush (grade 0-5) [3]: 0 (Herbicidal rate of 5% or less (almost no effect)) | herbicidal effect, H: barnyard grass [5, 29]: 0 (Herbicidal rate of 5% or less (almost no effect)) | herbicidal effect, M: velvetleaf [6, 29]: 1 (Herbicidal rate of 5% or more and less than 20%) | herbicidal effect, I: wild oat [7, 29]: 0 (Herbicidal rate of 5% or less (almost no effect)) | herbicidal effect on E: rice flat sedge [8, 29]: 5 (Herbicidal rate of 90% or more (almost completely withered)) | herbicidal effect, O: lambsquarters [10, 29]: 4 (Herbicidal rate of 70% or more and less than 90%) | herbicidal effect, K: Italian ryegrass [11, 29]: 0 (Herbicidal rate of 5% or less (almost no effect)) | herbicidal effect, J: blackgrass [12, 29]: 0 (Herbicidal rate of 5% or less (almost no effect)) | herbicidal effect, P: chickweed [28]: 3 (Herbicidal rate of 40% or more and less than 70%) | Herbicidal effect on A: late watergrass (grade 0-5) [16]: 3 (Herbicidal rate of 40% or more and less than 70%) | herbicidal effect on D: Chinese sprangletop [17, 29]: 2 (Herbicidal rate of 20% or more and less than 40%) | herbicidal effect, F: southern crabgrass [18, 29]: 0 (Herbicidal rate of 5% or less (almost no effect)) | herbicidal effect, N: redroot pigweed [20, 29]: 2 (Herbicidal rate of 20% or more and less than 40%) | herbicidal effect, G: green foxtail [21, 29]: 0 (Herbicidal rate of 5% or less (almost no effect)) | herbicidal effect on H: barnyard grass [23, 29]: 3 (Herbicidal rate of 40% or more and less than 70%) | herbicidal effect, L: windgrass [25, 29]: 0 (Herbicidal rate of 5% or less (almost no effect)) | Herbicidal effect on C: oval-leafed pondweed (grade 0-5) [26]: 0 (Herbicidal rate of 5% or less (almost no effect))
